Read-outs that look alike come from different tables or passages of the source.
Legend:
TbPTR1 = molecular target: T1, TbPTR1 (Trypanosoma brucei brucei, UniProt O76290); test: biochemical; conditions: for inhibition at 50 µM: read-out: % Inhibition TbPTR1 at 50 μM; for IC50: dose-response 0.001-100 μM
T1 construct: made in house
T1 sequence (O76290 1-268): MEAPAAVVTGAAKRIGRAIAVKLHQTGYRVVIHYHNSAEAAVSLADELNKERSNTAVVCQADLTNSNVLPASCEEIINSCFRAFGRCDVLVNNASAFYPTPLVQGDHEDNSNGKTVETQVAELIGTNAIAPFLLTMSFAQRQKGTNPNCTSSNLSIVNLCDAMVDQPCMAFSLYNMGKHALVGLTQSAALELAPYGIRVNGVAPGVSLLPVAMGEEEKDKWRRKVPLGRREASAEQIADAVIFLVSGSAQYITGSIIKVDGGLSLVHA

CYP2C19 = CYP2C19 (Homo sapiens, UniProt P33261); test: in vitro; design: cytochrome P450 isoform inhibition liability assay
Procedure: (§1) Independent of the effect of any antiparasitic potential of compounds, they were evaluated using a panel of early-toxicity assays comprising cytotoxicity (A549, human lung adenocarcinoma epithelial cell line and WI-38, human lung fibroblasts), mitochondrial toxicity (786-O, human renal carcinoma cell line), hERG inhibition,[31] cytochrome P450 inhibition (CYP1A2, CYP2C9, CYP2C19, CYP2D6, and CYP3A4),[31] and Aurora B kinase inhibition. […] For the two compounds active against TbPTR1 (4m and 4o), IC50 against hERG, cytochrome P450, and mitochondrial toxicity were determined (reported in Supporting Information). We observed that the dose of compounds 4m, 4o, 4c, and 3k was 4 μM in the potentiation assays. […] In the case of hERG, CYP2D6, CYP2A9, CYP2C19, and mitochondrial toxicity, there is a selectivity index of around 3–4 fold, thus showing an acceptable profile.  Figure 10 Summary heat map of the in vitro assays to determine possible liability issues for all synthesized compounds. Assays were performed to assess inhibition of hERG and five CYP isoforms (1A2, 2C9, 2C19, 2D6, and 3A4), growth inhibition of A549 and W1-38 cell lines, and mitochondrial toxicity at 10 μM. The hDHFR inhibition was determined at 100 μM. The data, expressed as percentage values, were organized by adopting a color code for rapid and intuitive visualization. The ideal compound should have all tiles blue, indicating a safe toxicological profile for progressing into the development pipeline. The cells are colored from blue (100% of cell growth at the tested concentration) to red (0% of cell growth at the tested concentration) for A549 and W1-38 and from blue (0% of inhibitory activity at the tested concentration) to red (100% of inhibitory activity at the tested concentration) for CYP isoforms, hERG, hDHFR, and mitochondrial toxicity.

CYP1A2 = molecular target: T2, CYP1A2 (Homo sapiens, UniProt P05177); test: in vitro; design: cytochrome P450 isoform inhibition liability assay
T2 sequence (P05177 1-516): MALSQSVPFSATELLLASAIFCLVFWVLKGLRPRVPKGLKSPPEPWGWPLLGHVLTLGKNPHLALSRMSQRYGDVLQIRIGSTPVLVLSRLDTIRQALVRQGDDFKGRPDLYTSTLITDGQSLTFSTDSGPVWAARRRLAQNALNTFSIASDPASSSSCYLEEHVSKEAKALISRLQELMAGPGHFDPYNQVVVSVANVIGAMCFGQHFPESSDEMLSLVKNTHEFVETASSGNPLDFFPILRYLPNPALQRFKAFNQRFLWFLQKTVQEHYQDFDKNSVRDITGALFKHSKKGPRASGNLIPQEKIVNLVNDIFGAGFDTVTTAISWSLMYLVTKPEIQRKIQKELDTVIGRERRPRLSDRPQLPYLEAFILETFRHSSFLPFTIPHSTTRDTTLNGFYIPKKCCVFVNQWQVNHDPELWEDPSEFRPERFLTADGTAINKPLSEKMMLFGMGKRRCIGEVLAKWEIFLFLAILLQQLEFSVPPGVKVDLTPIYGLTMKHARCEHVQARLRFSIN
Procedure: as §1

CYP3A4 = CYP3A4 (Homo sapiens, UniProt P08684); test: in vitro; design: cytochrome P450 isoform inhibition liability assay
Procedure: as §1

CYP2D6 = CYP2D6 (Homo sapiens, UniProt P10635); test: in vitro; design: cytochrome P450 isoform inhibition liability assay
Procedure: as §1

CYP2C9 = CYP2C9 (Homo sapiens, UniProt P11712); test: in vitro; design: cytochrome P450 isoform inhibition liability assay
Procedure: as §1

[1] = tested on: T. b. brucei Lister 427 bloodstream forms; test: In vitro activity against T. brucei (HTS SYBR Green I growth inhibition assay); type: cell-based, Trypanosoma brucei brucei; conditions: Trypanosoma brucei, standard deviation within ±10% of the value; for inhibition at 50 µM: read-out: % Inhibition T. brucei at 50 μM; for EC50: read-out: EC50 T. brucei
hDHFR = molecular target: T3, hDHFR (Homo sapiens, UniProt P00374); test: biochemical; design: human DHFR enzyme inhibition
T3 construct: gene DHFR
T3 sequence (P00374 1-187): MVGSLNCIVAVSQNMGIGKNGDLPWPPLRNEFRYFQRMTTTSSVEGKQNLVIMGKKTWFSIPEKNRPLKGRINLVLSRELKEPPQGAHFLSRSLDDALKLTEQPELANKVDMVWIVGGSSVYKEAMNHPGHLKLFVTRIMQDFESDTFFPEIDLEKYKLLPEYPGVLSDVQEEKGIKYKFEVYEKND
Procedure: Figure 10 Summary heat map of the in vitro assays to determine possible liability issues for all synthesized compounds. Assays were performed to assess inhibition of hERG and five CYP isoforms (1A2, 2C9, 2C19, 2D6, and 3A4), growth inhibition of A549 and W1-38 cell lines, and mitochondrial toxicity at 10 μM. The hDHFR inhibition was determined at 100 μM. The data, expressed as percentage values, were organized by adopting a color code for rapid and intuitive visualization. The ideal compound should have all tiles blue, indicating a safe toxicological profile for progressing into the development pipeline. The cells are colored from blue (100% of cell growth at the tested concentration) to red (0% of cell growth at the tested concentration) for A549 and W1-38 and from blue (0% of inhibitory activity at the tested concentration) to red (100% of inhibitory activity at the tested concentration) for CYP isoforms, hERG, hDHFR, and mitochondrial toxicity.

786-O = test: cells; design: mitochondrial toxicity in 786-O renal carcinoma cells; conditions: Homo sapiens, 786-0; mitochondrial toxicity
Procedure: as §1

in vitro [2] = test: in vitro; design: cytotoxicity, per cent cell growth of WI-38 fibroblasts; conditions: human, wi-38 cells; read-out: % cell growth W1-38 at 10uM
Procedure: as §1

in vitro [3] = test: in vitro; design: cytotoxicity, per cent cell growth of A549 cells; conditions: human, a549 cells; read-out: % cell growth A549 at 10uM
Procedure: as §1

hERG = molecular target: T4, hERG (Homo sapiens, UniProt Q12809); design: hERG inhibition liability assay
T4 construct: gene KCNH2
Procedure: as §1

CYP2D6, sequence (P10635 whole entry, canonical isoform): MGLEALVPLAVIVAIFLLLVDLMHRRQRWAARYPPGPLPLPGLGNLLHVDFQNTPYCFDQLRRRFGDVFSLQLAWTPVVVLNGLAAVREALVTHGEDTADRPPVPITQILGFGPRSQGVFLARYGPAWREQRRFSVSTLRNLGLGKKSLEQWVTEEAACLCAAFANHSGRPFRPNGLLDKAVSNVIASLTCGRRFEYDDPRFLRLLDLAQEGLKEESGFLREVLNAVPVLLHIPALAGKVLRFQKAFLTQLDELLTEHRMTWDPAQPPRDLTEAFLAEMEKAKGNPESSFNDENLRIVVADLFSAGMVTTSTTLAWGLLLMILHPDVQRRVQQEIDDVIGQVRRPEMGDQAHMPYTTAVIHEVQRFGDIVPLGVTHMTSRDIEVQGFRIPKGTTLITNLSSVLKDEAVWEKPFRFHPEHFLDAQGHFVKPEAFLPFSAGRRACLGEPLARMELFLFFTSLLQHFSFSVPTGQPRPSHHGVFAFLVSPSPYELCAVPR
CYP2C19, sequence (P33261 whole entry, canonical isoform): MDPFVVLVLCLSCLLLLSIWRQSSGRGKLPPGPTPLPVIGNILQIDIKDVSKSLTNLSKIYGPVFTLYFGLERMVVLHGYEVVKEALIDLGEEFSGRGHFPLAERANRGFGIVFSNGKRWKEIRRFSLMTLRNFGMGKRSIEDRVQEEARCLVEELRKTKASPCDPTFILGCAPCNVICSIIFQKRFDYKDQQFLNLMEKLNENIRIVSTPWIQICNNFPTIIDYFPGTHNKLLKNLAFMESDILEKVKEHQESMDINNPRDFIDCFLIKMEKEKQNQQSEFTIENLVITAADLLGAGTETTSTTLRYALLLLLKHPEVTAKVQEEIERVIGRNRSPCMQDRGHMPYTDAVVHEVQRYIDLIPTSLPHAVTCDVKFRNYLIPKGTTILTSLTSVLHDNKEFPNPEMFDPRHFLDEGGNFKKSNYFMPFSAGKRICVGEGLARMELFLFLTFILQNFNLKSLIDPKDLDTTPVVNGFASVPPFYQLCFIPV
CYP3A4, sequence (P08684 whole entry, canonical isoform): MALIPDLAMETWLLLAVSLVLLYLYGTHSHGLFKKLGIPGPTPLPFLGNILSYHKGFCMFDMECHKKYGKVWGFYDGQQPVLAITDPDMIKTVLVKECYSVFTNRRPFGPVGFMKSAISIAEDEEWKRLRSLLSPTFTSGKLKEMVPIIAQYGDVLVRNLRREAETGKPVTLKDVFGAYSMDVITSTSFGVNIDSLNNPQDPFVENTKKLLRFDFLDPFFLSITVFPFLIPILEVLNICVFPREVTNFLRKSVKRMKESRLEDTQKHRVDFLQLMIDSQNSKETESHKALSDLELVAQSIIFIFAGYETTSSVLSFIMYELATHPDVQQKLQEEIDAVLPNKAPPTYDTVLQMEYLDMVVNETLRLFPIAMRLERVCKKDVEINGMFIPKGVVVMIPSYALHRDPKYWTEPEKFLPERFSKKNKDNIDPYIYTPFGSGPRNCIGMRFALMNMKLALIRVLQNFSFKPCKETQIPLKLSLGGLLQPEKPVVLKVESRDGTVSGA
CYP2C9, sequence (P11712 whole entry, canonical isoform): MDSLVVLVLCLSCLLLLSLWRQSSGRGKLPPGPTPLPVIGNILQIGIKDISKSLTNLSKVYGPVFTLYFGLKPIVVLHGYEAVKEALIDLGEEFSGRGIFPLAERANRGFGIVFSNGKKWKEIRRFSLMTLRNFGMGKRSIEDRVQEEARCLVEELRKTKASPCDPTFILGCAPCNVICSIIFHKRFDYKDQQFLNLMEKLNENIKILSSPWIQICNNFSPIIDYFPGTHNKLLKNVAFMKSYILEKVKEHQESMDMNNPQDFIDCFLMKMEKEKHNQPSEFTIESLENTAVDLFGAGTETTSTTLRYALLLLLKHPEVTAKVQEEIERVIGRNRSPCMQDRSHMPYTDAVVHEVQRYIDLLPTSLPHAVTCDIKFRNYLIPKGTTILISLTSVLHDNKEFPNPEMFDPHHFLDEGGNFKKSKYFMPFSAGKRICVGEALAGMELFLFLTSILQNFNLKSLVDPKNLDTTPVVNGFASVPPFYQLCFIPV
T4 sequence (Q12809 whole entry): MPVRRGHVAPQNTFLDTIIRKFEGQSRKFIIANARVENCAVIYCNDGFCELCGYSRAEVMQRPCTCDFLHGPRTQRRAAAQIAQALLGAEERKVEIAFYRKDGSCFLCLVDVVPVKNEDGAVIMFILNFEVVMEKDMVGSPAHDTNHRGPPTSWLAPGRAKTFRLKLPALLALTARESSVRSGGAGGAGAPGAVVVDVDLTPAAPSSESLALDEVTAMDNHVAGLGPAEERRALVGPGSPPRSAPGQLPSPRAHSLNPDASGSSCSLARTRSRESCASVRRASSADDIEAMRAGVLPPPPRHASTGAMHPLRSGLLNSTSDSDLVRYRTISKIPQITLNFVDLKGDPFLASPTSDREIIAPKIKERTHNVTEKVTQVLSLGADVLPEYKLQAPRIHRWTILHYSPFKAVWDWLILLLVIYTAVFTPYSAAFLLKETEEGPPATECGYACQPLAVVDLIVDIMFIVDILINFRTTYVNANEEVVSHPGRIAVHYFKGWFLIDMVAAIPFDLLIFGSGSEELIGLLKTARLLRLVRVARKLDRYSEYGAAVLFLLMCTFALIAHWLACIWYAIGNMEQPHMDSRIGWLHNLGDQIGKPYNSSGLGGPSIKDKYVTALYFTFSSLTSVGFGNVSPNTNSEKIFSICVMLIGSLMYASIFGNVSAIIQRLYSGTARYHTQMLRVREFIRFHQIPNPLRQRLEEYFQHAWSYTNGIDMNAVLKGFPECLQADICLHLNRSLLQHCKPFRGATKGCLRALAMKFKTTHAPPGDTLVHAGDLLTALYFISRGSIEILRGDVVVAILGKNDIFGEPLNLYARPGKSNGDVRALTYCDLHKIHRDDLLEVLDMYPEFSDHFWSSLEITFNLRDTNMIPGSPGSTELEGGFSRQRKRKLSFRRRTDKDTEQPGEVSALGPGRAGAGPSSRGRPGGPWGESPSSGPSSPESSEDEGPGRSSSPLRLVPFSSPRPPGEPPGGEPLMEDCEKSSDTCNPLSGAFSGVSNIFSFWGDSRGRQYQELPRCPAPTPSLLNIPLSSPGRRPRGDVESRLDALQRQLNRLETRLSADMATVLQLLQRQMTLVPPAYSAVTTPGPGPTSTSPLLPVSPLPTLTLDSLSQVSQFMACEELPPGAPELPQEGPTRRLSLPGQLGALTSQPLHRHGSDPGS

Row | SMILES | inhibition at 50 µM (TbPTR1; 50 μM compound) [%] | inhibition at 10 µM (CYP2C19) [%] | inhibition at 10 µM (CYP1A2) [%] | inhibition at 10 µM (CYP3A4) [%] | inhibition at 10 µM (CYP2D6) [%] | inhibition at 10 µM (CYP2C9) [%] | inhibition at 50 µM [1] [%] | EC50 [1] [µM] | inhibition at 10 µM (hDHFR) [%] | inhibition at 10 µM (786-O) [%] | viability at 10 µM (in vitro [2]) [%] | viability at 10 µM (in vitro [3]) [%] | inhibition at 10 µM (hERG) [%] | inhibition at 100 µM (hDHFR) [%] | times less active than 4o against TbPTR1 (TbPTR1) | IC50 (TbPTR1) [µM] | inhibition at 25 µM (hDHFR; 25 uM) [%] | % Inhibition TbPTR1 at 50 μM (TbPTR1; 50 μM compound)
1 | Nc1nnc(-c2cccc(-c3cccc(C(F)(F)F)c3)c2)s1 [2d] | 4.6 ± 1 | 43.6 ± 2.1 | 100 ± 2.1 | 33.9 ± 3.8 | 31.1 ± 4.3 | 46.1 ± 5.4 | 94.8 | 37 | 34 | – | – | – | – | – | – | – | – | –
2 | Nc1nnc(-c2cccc(-c3ccc(C(F)(F)F)cc3)c2)s1 [2e] | 6.6 ± 0.6 | 12.3 ± 5.4 | 92.6 ± 1.1 | 17.9 ± 5.3 | 20 ± 5.8 | 25.6 ± 4 | 92.1 | 42 | 25 | – | – | – | – | – | – | – | – | –
3 | COc1ccc(-c2cccc(-c3nnc(N)s3)c2)cc1OC [2f] | 8.6 ± 0.6 | – | 92.8 ± 1.9 | 48.3 ± 2.4 | 19.2 ± 3.5 | 53.2 ± 1.6 | 9.5 | – | – | 1.6 ± 14.4 | 87.5 ± 44.4 | 106 ± 4.2 | 15.1 ± 4.8 | 28 | – | – | – | –
4 | Nc1nnc(-c2ccccc2Cc2ccccc2)s1 [1m, 5-(2-benzylphenyl)-1,3,4-thiadiazol-2-amine] | – | 90.5 ± 0.6 | 68.1 ± 1 | 47.5 ± 4.8 | 69.2 ± 4.5 | 36.5 ± 5.4 | – | – | 20 | – | – | – | – | – | – | – | – | –
5 | Nc1nnc(NCCc2ccccc2)s1 [4n] | 36.7 ± 2 | 29.2 ± 6.6 | 22.7 ± 1.9 | 25.1 ± 4.3 | 103 ± 0.2 | 30.4 ± 2.9 | 4 | – | – | – | 66.1 ± 3.1 | 112 ± 5.4 | 91.4 ± 6.2 | 19 | about 3 times | 62 | – | –
6 | N#Cc1ccc(Cc2ccccc2-c2nnc(N)s2)cc1 [1n, 4-(2-(5-amino-1,3,4-thiadiazol-2-yl)benzyl)benzonitrile] | – | 104 ± 2 | 56.2 ± 0.5 | 69.6 ± 3.25 | 75.4 ± 5.2 | 59.8 ± 4.9 | – | – | – | – | – | – | – | – | – | – | 37 | –
7 | Nc1nnc(NCCCc2ccccc2)s1 [4q, N2G(3Gphenylpropyl)G1,3,4GthiadiazoleG2,5Gdiamine] | 30 ± 1.9 | 17.3 ± 4.6 | 22.1 ± 2.7 | 24.2 ± 4.7 | 100.2 ± 0.4 | 18.6 ± 4.5 | < 0 | – | – | 5.6 ± 18 | 111 ± 43.7 | 106 ± 3.7 | 81.1 ± 11.6 | – | – | 57 | – | –
8 | Cc1ccc(CNc2nnc(N)s2)cc1 [4l] | 18.6 ± 0.8 | -6.7 ± 11.4 | 17.3 ± 3.2 | 26.9 ± 4.7 | 98.7 ± 1 | 14.2 ± 3.9 | 10.8 | – | – | -5.3 ± 14.7 | 106 ± 13.2 | 104.6 ± 0.5 | 77.4 ± 1.5 | – | – | – | – | –
9 | Nc1nnc(NCc2ccccc2)s1 [4b] | 39.5 ± 0.9 | -32.1 ± 5.7 | -17.2 ± 3.6 | -9.5 ± 6.2 | -32.7 ± 6.7 | -14.7 ± 3.3 | < 0 | – | – | 9 ± 14.8 | 124 ± 19 | 104 ± 9.3 | 1.8 ± 1.3 | – | – | – | – | –
10 | Nc1cccc(-c2nnc(N)s2)c1 [1j] | 27 ± 0.4 | -45.8 ± 11.8 | 5.3 ± 5.1 | -14.9 ± 3.9 | -51 ± 8.9 | -20.2 ± 7.3 | 1 | – | – | – | 92.5 ± 7.8 | 134 ± 4.7 | 32.6 ± 34.3 | 18 | – | – | – | –
11 | NCc1ccc(-c2nnc(N)s2)cc1 [1b] | 7.7 ± 0.6 | -17.9 ± 3.7 | -5.3 ± 10.2 | 23.7 ± 2.2 | -44.2 ± 10.4 | -7.9 ± 0.8 | 93 | 0.8 | – | 4.5 ± 2.5 | 98.7 ± 11.4 | 114 ± 1.2 | 5.7 ± 3.9 | – | – | – | – | did not show inhibition
12 | Nc1nnc(NCc2ccc(F)cc2)s1 [4g] | 14.7 ± 1.7 | -13.9 ± 11.1 | 24.9 ± 2.6 | 11.2 ± 3.1 | 103.1 ± 0.6 | 22.9 ± 1.3 | 33 | – | – | -8.3 ± 12.6 | 97.1 ± 30.2 | 110 ± 8 | 96.9 ± 6.1 | – | – | – | – | –
13 | Nc1nnc(Cc2cccc([N+](=O)[O-])c2)s1 [3c] | 15.8 ± 0.5 | -36.1 ± 11.8 | -10.9 ± 1.6 | -16.9 ± 5.2 | -38.6 ± 16.3 | -8.8 ± 3 | 0.8 | – | – | -4.11 ± 5.77 | 88.4 ± 11.1 | 117 ± 3.5 | -1.8 ± 0.6 | – | – | – | – | –

— article PMC5623949, “Exploiting the 2-Amino-1,3,4-thiadiazole Scaffold To Inhibit Trypanosoma brucei Pteridine Reductase in Support of Early-Stage Drug Discovery” (ACS Omega, 2017)
